Experimental data taken from US8217055B2, “Pyrido-pyrazine derivatives useful as herbicidal compounds” (Syngenta Crop Protection LLC, priority 2006, dated 2012).

Tests used:
Format in all cases: in vivo
Amaranthus retroflexus [1] = test: Example B1 herbicidal action, post-emergence, seed trays in climatic chamber (score 10=total damage to plant, 0=no damage to plant); details: Application post-emergence, 1000 g/ha, evaluated after 9 days
Method: (§1) Seeds of a variety of test species were sown in sterilised standard soil in seed trays each having 96 cells. After cultivation for 8 to 9 days cultivation (post-emergence) under controlled conditions in a climatic chamber (cultivation at 23/17° C., day/night; 13 hours light; 50-60% humidity), the plants were treated with an aqueous spray solution of 1000 mg/l of the active ingredient dissolved in 10% DMSO (dimethyl sulfoxide, CAS RN 67-68-5) as a solvent, equivalent to 1000 g/ha. The plants were grown in the climatic chamber after application at (24/19° C., day/night; 13 hours light; 50-60% humidity) and watered twice daily. After 9 days until the test was evaluated (10=total damage to plant, 0=no damage to plant)

Nasturtium officinale = test: as above; details: Application post-emergence, 1000 g/ha, evaluated after 9 days
Method: as §1

Solanum nigrum [2] = test: as above; details: Application post-emergence, 1000 g/ha, evaluated after 9 days
Method: as §1

Stellaria media = test: as above; details: Application post-emergence, 1000 g/ha, evaluated after 9 days
Method: as §1

Alopecurus myosuroides = test: Example B3 herbicidal action, post-emergence, small pots in glasshouse (score 10=total damage to plant, 0=no damage to plant); details: Application post-emergence, 1000 g/ha, evaluated after 13 days
Method: (§2) Seeds of a variety of test species were sown in sterilised compost in small pots. After cultivation for seven days (post-emergence) in controlled conditions in the glasshouse (at 24/16° C., day/night; 14 hours light; 65% humidity) the plants were sprayed with 1 mg of the active ingredient, formulated in 2.5 ml acetone/water (50:50) solution, which is equivalent to 1000 g/ha. Once the foliage was dry, the pots were kept in the glasshouse (at 24/16° C., day/night; 14 hours light; 65% humidity), and were watered twice daily. After 13 days the test was evaluated (10=total damage to plant, 0=no damage to plant).

Amaranthus retroflexus [3] = test: as above; details: Application post-emergence, 1000 g/ha, evaluated after 13 days
Method: as §2

Chenopodium album = test: as above; details: Application post-emergence, 1000 g/ha, evaluated after 13 days
Method: as §2

Digitaria sanguinalis = test: as above; details: Application post-emergence, 1000 g/ha, evaluated after 13 days
Method: as §2

[4] = tested on: test plants (a variety of test species); test: Example B2 herbicidal action, post-emergence, pots in glasshouse, evaluated after 13 days (score 10=total damage to plant; 0=no damage to plant); details: same protocol as Example B2 (post-emergence, evaluated after 13 days)
Method: (§3) Seeds of a variety of test species were sown in standard soil in pots. After 8 days cultivation (post-emergence) under controlled conditions in a glasshouse (at 24/16° C., day/night; 14 hours light; 65% humidity), the plants were sprayed with an aqueous spray solution derived from the formulation of the technical active ingredient in acetone/water (50:50) solution containing 0.5% Tween 20 (polyoxyethelyene sorbitan monolaurate, CAS RN 9005-64-5). The test plants were then grown in a glasshouse under controlled conditions in a glasshouse (at 24/16° C., day/night; 14 hours light; 65% humidity) and watered twice daily. After 13 days, the test was evaluated (10=total damage to plant; 0=no damage to plant).

test plants = test: Example B1 herbicidal action, post-emergence, all test plants together; details: same protocol as Example B1 (post-emergence, 1000 g/ha, 9 days)
Method: as §1

Amaranthus retroflexus [5] = test: Example B2 herbicidal action, post-emergence, pots in glasshouse, evaluated after 13 days (10=total damage to plant; 0=no damage to plant); details: rate 1000 g/ha
Method: as §3

Echinochloa crus-galli = test: as above; details: rate 1000 g/ha
Method: as §3

Ipomea hederaceae = test: as above; details: rate 1000 g/ha
Method: as §3

Setaria faberi = test: as above; details: rate 1000 g/ha
Method: as §3

Solanum nigrum [6] = test: as above; details: rate 1000 g/ha
Method: as §3

Row | Structure (SMILES) | AMARE (damage to plant) (Amaranthus retroflexus [1]) | NAAOF (damage to plant) (Nasturtium officinale) | SOLNI (damage to plant) (Solanum nigrum [2]) | STEME (damage to plant) (Stellaria media) | further results
1 | CC(C)(C)C(=O)Oc1c(-c2ccccc2OC(F)(F)F)c(=O)n(CC(F)F)c2nccnc12 [A1] | 0 | 8 | 6 | 7 | 
2 | CC(C)(C)C(=O)Oc1c(-c2c(F)ccc(F)c2Cl)c(=O)n(CC(F)F)c2nccnc12 [A2, 2,2-dimethyl-propionic acid 7-(2-chloro-3,6-difluoro-phenyl)-5-(2,2-difluoro-ethyl)-6-oxo-5,6-dihydro-pyrido[2,3-b]pyrazin-8-yl ester] | 4 | 9 | 6 | 9 | 
3 | CC(C)C(=O)Oc1c(-c2c(F)ccc(F)c2Cl)c(=O)n(CC(F)F)c2nccnc12 [A3] | 6 | 7 | 5 | 9 | 
4 | CC(C)C(=O)Oc1c(-c2cccc(C(F)(F)F)c2Cl)c(=O)n(CC(F)F)c2nccnc12 [A4] |  |  |  |  | ALOMY (damage to plant) (Alopecurus myosuroides): 0; AMARE (damage to plant) (Amaranthus retroflexus [3]): 10; CHEAL (damage to plant) (Chenopodium album): 10; DIGSA (damage to plant) (Digitaria sanguinalis): 7
5 | Cc1ccc(Cl)c(-c2c(OC(=O)C(C)(C)C)c3nccnc3n(CC(F)F)c2=O)c1F [A5] | 4 | 5 | 2 | 7 | 
6 | Cc1ccc(Cl)c(-c2c(OC(=O)C(C)C)c3nccnc3n(CC(F)F)c2=O)c1F [A6] | 5 | 7 | 0 | 7 | 
7 | CC(C)C(=O)Oc1c(-c2cc(C(F)(F)F)ccc2Cl)c(=O)n(CC(F)F)c2nccnc12 [A7] | 4 | 7 | 5 | 8 | 
8 | CC(C)(C)C(=O)Oc1c(-c2cc(C(F)(F)F)ccc2Cl)c(=O)n(CC(F)F)c2nccnc12 [A8] | 6 | 7 | 6 | 7 | 
9 | Cc1cnc2c(n1)c(OC(=O)C(C)(C)C)c(-c1c(F)ccc(F)c1Cl)c(=O)n2CC(F)F [A29] |  |  |  |  | damage to the test plants [4]: no damage or very little damage
10 | Cc1cnc2c(OC(=O)C(C)(C)C)c(-c3c(F)ccc(F)c3Cl)c(=O)n(CC(F)F)c2n1 [A30] |  |  |  |  | damage to the test plants [4]: no damage or very little damage
11 | CC(C)(C)C(=O)Oc1c(-c2c(F)ccc(F)c2Cl)c(=O)n(CC(F)F)c2ncc(-c3ccccc3)nc12 [A31] |  |  |  |  | damage to the test plants [4]: no damage or very little damage
12 | CC(C)(C)C(=O)Oc1c(-c2ccccc2I)c(=O)n(CC(F)F)c2nccnc12 [A36] |  |  |  |  | ALOMY (damage to plant) (Alopecurus myosuroides): 8; AMARE (damage to plant) (Amaranthus retroflexus [3]): 10; CHEAL (damage to plant) (Chenopodium album): 10; DIGSA (damage to plant) (Digitaria sanguinalis): 5
13 | O=c1c(-c2cccc(C(F)(F)F)c2Cl)c(O)c2nccnc2n1CC(F)F [B1] | 0 | 6 | 6 | 5 | 
14 | O=c1c(-c2c(F)ccc(F)c2Cl)c(O)c2nccnc2n1CC(F)F [B2, 7-(2-chloro-3,6-difluoro-phenyl)-5-(2,2-difluoro-ethyl)-8-hydroxy-5H-pyrido[2,3-b]pyrazin-6-one] | 6 | 8 | 5 | 8 | 
15 | CC(C)(C)C(=O)Oc1c(-c2ccccc2OC(F)(F)F)c(=O)n(CCCCCl)c2nccnc12 [C1] |  |  |  |  | damage to the test plants (test plants): no damage or very little damage
16 | CC(C)(C)C(=O)Oc1c(-c2ccccc2OC(F)(F)F)c(=O)n(CCC(F)(F)F)c2nccnc12 [C2] | 0 | 0 | 4 | 0 | 
17 | CC(C)(C)C(=O)Oc1c(-c2ccccc2OC(F)(F)F)c(=O)n(CCC(F)(F)C(F)(F)F)c2nccnc12 [C3] |  |  |  |  | damage to the test plants (test plants): no damage or very little damage
18 | CC(C)(C)C(=O)Oc1c(-c2c(F)ccc(F)c2Cl)c(=O)n(CCCCCl)c2nccnc12 [C4] | 0 | 0 | 4 | 1 | 
19 | CC(C)(C)C(=O)Oc1c(-c2c(F)ccc(F)c2Cl)c(=O)n(CCCCl)c2nccnc12 [C5] |  |  |  |  | damage to the test plants (test plants): no damage or very little damage
20 | CC(C)(C)C(=O)Oc1c(-c2c(F)ccc(F)c2Cl)c(=O)n(CCC(F)(F)F)c2nccnc12 [C6] | 0 | 0 | 1 | 3 | 
21 | CC(C)(C)C(=O)Oc1c(-c2c(F)ccc(F)c2Cl)c(=O)n(CCC(F)(F)C(F)(F)F)c2nccnc12 [C7] | 0 | 0 | 3 | 0 | 
22 | O=C1c2nccnc2N(CC=C(Cl)Cl)C(=O)C1c1c(F)ccc(F)c1Cl (centres unmarked) [D3] |  |  |  |  | AMARE damage score (10=total damage to plant; 0=no damage to plant) (Amaranthus retroflexus [5]): 9; ECHCG damage score (10=total damage to plant; 0=no damage to plant) (Echinochloa crus-galli): 0; IPOHE damage score (10=total damage to plant; 0=no damage to plant) (Ipomea hederaceae): 7; SETFA damage score (10=total damage to plant; 0=no damage to plant) (Setaria faberi): 3; SOLNI damage score (10=total damage to plant; 0=no damage to plant) (Solanum nigrum [6]): 7
